The target in one test is T1, CLK1 (Homo sapiens, UniProt P49759).
T1 construct: purchased Life Technologies
Description: In vitro kinase assay (ADP-Glo), CLK1. The format is biochemical. The settings on record: for pIC50: 5 µM ATP; for activity for CLK1 relative to Cpd-1: stronger than Cpd-1. On the procedure: (§1) The ATP concentration for each assay was adjusted to the Km for each kinase. Kinase assays for SRPK1–3 and CLK1 were performed using the ADP-Glo™ assay (Promega, Madison, WI). The kinase buffer contained 25 mM HEPES (pH 7.5), 10 mM magnesium acetate, 1 mM DTT, 0.01% BSA, and 0.01% Tween-20. The reaction mixtures contained 50 ng/mL SRPK1, 100 ng/mL SRPK2 or SRPK3, or 300 ng/mL CLK1 and 3 μM substrate peptide [GRSRSRSRSRSRSRSR] (Thermo Scientific). After incubating the enzyme, peptide, and compounds for 10 min, kinase reactions were initiated by adding ATP to a final concentration of 5 µM, followed by incubation for 30 min (15 min for SRPK1). The kinase reactions were terminated by adding ADP-Glo™ reagent (Promega). ADP was detected using a kinase detection reagent (Promega). The kinase activity of CLK2 was measured using the LANCE® Ultra assay (Perkin-Elmer, Waltham, MA) with ADP-Glo assay buffer. The reaction mixtures contained 100 ng/mL CLK2 and 50 nM ULight™-myelin basic protein (MBP) peptide (Perkin-Elmer). After incubating the enzyme, peptide, and compounds for 5 min, kinase reactions were initiated by adding ATP to a final concentration of 20 μM, followed by incubation for 30 min. The enzyme reactions were terminated by adding 30 mM EDTA, and phosphorylated ULight-MBP peptides were detected using a europium-labeled anti-phospho-MBP antibody diluted with detection buffer (Perkin-Elmer). The plates were read using an EnVision 2102 multilabel reader (Perkin-Elmer). We defined the absorbance of the reaction without enzyme as 100% inhibitory activity and that of the complete reaction mixture as 0% inhibitory activity. The IC50 values were estimated using the “Sigmoidal dose-response (variable slope)” equation in GraphPad Prism 5 software (GraphPad Software, San Diego, CA), with the maximum and minimum of the curve constrained to 100 and 0, respectively.
(In general: ADP-Glo first removes unused ATP, then detects ADP through luciferase.)

Another test deals with T2, CLK2 (Homo sapiens, UniProt P49760).
T2 construct: purchased Life Technologies
T2 sequence (P49760 whole entry): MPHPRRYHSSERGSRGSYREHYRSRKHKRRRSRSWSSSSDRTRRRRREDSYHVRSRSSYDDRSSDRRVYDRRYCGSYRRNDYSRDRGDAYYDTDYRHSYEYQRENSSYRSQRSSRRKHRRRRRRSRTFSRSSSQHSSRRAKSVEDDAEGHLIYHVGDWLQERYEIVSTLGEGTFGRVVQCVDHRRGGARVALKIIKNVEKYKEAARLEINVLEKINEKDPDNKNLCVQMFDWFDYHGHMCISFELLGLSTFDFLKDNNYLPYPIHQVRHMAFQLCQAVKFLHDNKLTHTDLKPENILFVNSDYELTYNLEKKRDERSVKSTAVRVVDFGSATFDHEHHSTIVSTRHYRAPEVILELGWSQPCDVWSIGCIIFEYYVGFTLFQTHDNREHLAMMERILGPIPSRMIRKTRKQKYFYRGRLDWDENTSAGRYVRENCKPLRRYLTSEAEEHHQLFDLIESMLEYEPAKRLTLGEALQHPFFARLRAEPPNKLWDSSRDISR
The test can be described thus: In vitro kinase assay (LANCE Ultra), CLK2. The format is biochemical. The settings on record: for pIC50: 20 µM ATP; for activity for CLK2 relative to Cpd-1: stronger than Cpd-1. As for the experimental part: as §1
On the technique in general: TR-FRET usually uses a lanthanide donor and a delayed reading to cut background.

For the next test, the target named is T3, SRPK1 (Homo sapiens, UniProt Q96SB4).
T3 construct: Full-length human recombinant SRPK1 with a FLAG tag linked to the N-terminus (FLAG-hSRPK1); FLAG (N); made in house; host or cells: Sf9 cells (baculovirus, Bac-to-Bac)
T3 sequence (Q96SB4 whole entry): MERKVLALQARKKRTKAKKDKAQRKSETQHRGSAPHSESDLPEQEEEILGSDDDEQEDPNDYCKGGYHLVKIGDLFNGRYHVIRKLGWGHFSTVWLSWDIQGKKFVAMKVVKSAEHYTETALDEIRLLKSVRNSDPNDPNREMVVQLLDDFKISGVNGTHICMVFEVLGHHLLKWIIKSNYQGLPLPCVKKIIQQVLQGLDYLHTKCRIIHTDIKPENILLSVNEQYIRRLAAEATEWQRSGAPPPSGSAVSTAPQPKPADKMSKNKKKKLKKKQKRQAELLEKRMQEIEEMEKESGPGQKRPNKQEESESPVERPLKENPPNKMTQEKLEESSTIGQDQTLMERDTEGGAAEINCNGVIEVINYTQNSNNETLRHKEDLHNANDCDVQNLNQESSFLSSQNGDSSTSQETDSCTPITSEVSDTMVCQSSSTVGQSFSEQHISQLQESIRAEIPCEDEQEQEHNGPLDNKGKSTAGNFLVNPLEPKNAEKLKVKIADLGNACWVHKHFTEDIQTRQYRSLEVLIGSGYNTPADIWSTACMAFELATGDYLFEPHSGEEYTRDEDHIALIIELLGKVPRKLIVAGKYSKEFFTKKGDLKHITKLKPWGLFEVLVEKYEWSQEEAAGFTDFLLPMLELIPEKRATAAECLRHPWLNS
The test can be described thus: In vitro kinase assay (ADP-Glo), SRPK1. Particulars: 5 µM ATP. The format is biochemical. As for the experimental part:
Full-length human recombinant SRPK1 with a FLAG tag linked to the N-terminus (FLAG-hSRPK1) was prepared using a baculovirus expression system. The recombinant baculovirus used to express FLAG-hSRPK1 was constructed according to the protocol provided with the Bac-to-Bac Baculovirus Expression System (Invitrogen, Carlsbad, CA). Sf9 cells were infected with the amplified recombinant baculovirus, cultured at 27°C for 3 days, harvested, and stored at −80°C. The frozen cells were suspended in lysis buffer [50 mM Tris-HCl pH 7.5, 150 mM NaCl, 10% (w/v) glycerol, 1 mM DTT, and complete protease inhibitor cocktail (Roche, Basel, Switzerland)], sonicated for 1 min, and centrifuged at 15,000 × g for 30 min. The soluble fraction was applied to an anti-FLAG M2 affinity gel (Sigma-Aldrich, St. Louis, MO), and FLAG-hSRPK1 was eluted with elution buffer [50 mM Tris-HCl pH 7.5, 10% (w/v) glycerol, 1 mM DTT, and 0.1 mg/mL FLAG peptide]. FLAG-hSRPK1 was further purified by anion exchange chromatography (MonoQ 5/50 GL; GE Healthcare, Piscataway, NJ) and gel filtration chromatography (HiLoad 26/60 Superdex 200 pg; GE Healthcare). Protein concentration was measured using BCA protein assay reagents (Thermo Scientific, Pittsburgh, PA). CLK1 and CLK2 were purchased from Life Technologies (Carlsbad, CA) and SRPK2 and SRPK3 were obtained from Millipore (Billerica, MA).
The ATP concentration for each assay was adjusted to the Km for each kinase. […] ADP was detected using a kinase detection reagent (Promega). The kinase activity of CLK2 was measured using the LANCE® Ultra assay (Perkin-Elmer, Waltham, MA) with ADP-Glo assay buffer. […] The enzyme reactions were terminated by adding 30 mM EDTA, and phosphorylated ULight-MBP peptides were detected using a europium-labeled anti-phospho-MBP antibody diluted with detection buffer (Perkin-Elmer). The plates were read using an EnVision 2102 multilabel reader (Perkin-Elmer). We defined the absorbance of the reaction without enzyme as 100% inhibitory activity and that of the complete reaction mixture as 0% inhibitory activity. […]

A further test addresses T4, SRPK2 (Homo sapiens, UniProt P78362).
T4 construct: purchased Millipore
Description: In vitro kinase assay (ADP-Glo), SRPK2. The settings on record: 5 µM ATP. The format is biochemical. As for the experimental part: as §1

A further test concerns NCI-H23 cells. Description: Cell viability assay, NCI-H23. The format is cell-based. The settings on record: Homo sapiens; NCI-H23 non-small cell lung cancer.
The test system of test [1] is S6K pre-mRNA splicing in MDA-MB-468 cells. Description: S6K pre-mRNA splicing alteration (quantitative RT-PCR), MDA-MB-468. The format is cell-based, human. Particulars: for Rc0.1: MDA-MB-468, concentration at which ratio of copy number of S6K exons 6–8 to S6K exons 6–7 is 0.1; for concentration at which expression level of the alternatively spliced S6K mRNAs was highest: MDA-MB-468, 6 h, S6K exons 6–8 (exon 7 skipped). The text has this:
(§2) To examine whether inhibition of a particular CLK and/or SRPK contributed to the alternative splicing of S6K pre-mRNA, we used an additional series of compounds with the same scaffold as Cpd-1, Cpd-2, and Cpd-3, but different selectivity. First, we examined the correlation between the enzymatic activity and the level of splicing alterations of S6K pre-mRNA for the individual compounds. We used the exon 7-skipped type of S6K variant to calibrate Rc0.1 values, i.e., the concentrations that induced 10% of the copy number of an alternative isoform compared with that of the canonical isoform. The inhibition of CLK1 and CLK2 activities was correlated with the splicing alteration activities (Rc0.1) (R^2 = 0.3353 and 0.4255, respectively). In contrast, there was no correlation between the activities of SRPKs and the Rc0.1 values (R^2 < 0.0468) (Fig. 3A). Next, we compared the levels of splicing alteration and growth inhibition of the compounds. […] Similar correlations between Rc0.1 and GI50 values were also obtained in seven different cancer cell lines after treatment with Cpd-2 or Cpd-3 (Table 2).
(§3) Total RNA was extracted using an RNeasy Miniprep Kit (Qiagen, Valencia, CA) in accordance with the manufacturer’s instructions. Reverse transcription was performed using a TaqMan Reverse Transcription Reagents Kit (Applied Biosystems, Carlsbad, CA). The PCR conditions were as follows: one cycle of 5 min at 95°C; 35 cycles of 30 s at 94°C, 30 s at 60°C, and 30 s at 72°C; and one cycle of 10 min at 72°C. The PCR products were separated in 2% agarose gels. Real-time PCR was performed using a TaqMan MGB probe (Applied Biosystems), and the amount of FAM fluorescence was measured as a function of the PCR cycle number (CT) using an ABI 7900 Real-time PCR System (Applied Biosystems). The expression level of each mRNA was normalized by that of GAPDH mRNA.

Test [2] deals with S6K pre-mRNA splicing in NCI-H23 cells. The test can be described thus: S6K pre-mRNA splicing alteration (quantitative RT-PCR), NCI-H23. The format is cell-based, human. Particulars: ratio of S6K exons 6–8 to exons 6–7 is 0.1.
Source text: as §2, §3

In test [3] the test system is S6K pre-mRNA splicing in SW620 cells. Description: S6K pre-mRNA splicing alteration (quantitative RT-PCR), SW620. Particulars: ratio of S6K exons 6–8 to exons 6–7 is 0.1. The format is cell-based, human.
Source text: as §2, §3

pIC50: −log10 of the molar value.

Three molecules from paper PMC4291223, “Inhibitors of CLK Protein Kinases Suppress Cell Growth and Induce Apoptosis by Modulating Pre-mRNA Splicing” (PLoS ONE, 2015) can be followed below.

The term pIC50 denotes −log10 of the IC50, conventionally taken in molar units. What is called GI50 is the concentration at which growth is held to half of that of the control. Low values mean more potent growth inhibition, high ones less potent growth inhibition.

T1 sequence (P49759 whole entry): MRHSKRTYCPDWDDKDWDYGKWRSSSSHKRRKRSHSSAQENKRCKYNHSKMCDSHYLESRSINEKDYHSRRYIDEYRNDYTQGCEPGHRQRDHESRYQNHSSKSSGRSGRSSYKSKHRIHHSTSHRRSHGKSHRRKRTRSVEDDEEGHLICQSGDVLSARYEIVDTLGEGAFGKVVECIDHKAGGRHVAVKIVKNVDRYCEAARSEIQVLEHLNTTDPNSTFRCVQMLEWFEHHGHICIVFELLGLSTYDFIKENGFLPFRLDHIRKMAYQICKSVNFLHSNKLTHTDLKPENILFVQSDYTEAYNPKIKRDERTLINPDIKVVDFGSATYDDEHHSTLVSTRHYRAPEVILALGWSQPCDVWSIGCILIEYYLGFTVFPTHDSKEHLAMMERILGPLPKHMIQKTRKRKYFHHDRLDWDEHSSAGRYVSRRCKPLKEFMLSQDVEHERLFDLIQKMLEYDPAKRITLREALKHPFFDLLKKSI
T4 sequence (P78362 whole entry): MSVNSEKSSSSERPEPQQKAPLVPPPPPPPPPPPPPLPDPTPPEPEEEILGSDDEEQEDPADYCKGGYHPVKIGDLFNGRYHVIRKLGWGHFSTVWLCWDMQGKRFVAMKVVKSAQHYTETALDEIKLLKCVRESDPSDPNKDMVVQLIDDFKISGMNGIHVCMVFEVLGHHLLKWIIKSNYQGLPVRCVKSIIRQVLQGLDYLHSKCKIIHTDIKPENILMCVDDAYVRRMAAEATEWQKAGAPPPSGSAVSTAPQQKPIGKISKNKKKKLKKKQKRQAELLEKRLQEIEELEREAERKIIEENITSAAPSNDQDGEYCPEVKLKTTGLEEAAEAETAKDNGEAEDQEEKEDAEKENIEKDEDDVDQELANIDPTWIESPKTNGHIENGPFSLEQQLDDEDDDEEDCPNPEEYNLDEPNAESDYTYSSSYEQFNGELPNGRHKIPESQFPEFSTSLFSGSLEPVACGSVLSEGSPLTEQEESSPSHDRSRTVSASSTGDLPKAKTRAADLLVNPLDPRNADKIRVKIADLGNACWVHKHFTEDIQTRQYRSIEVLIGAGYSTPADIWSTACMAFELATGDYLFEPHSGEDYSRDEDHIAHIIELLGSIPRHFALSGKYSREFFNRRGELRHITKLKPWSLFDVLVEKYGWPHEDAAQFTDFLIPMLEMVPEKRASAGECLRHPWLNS

`CC(C)(CCc1nnn[nH]1)c1ccc(C(=O)Nc2cn3cc(C(F)(F)F)ccc3n2)cc1` [Cpd-1, 4-(2-methyl-4-(1H-tetrazol-5-yl)butan-2-yl)-N-(6-(trifluoromethyl)imidazo[1,2-a]pyridin-2-yl)benzamide]: the pIC50 was 7.80 against CLK1, 7.35 against CLK2, 7.21 against SRPK1 and 7.12 against SRPK2. Further, it took 32000 nM to inhibit growth with NCI-H23 cells by half (GI50). Moreover, the results for the Rc0.1 in test [1], in test [2] and in test [3] were 8.6 µM, greater than 10 µM and greater than 10 µM, respectively.

Take `CC(C)(C)c1ccc(C(=O)Nc2cn3cc(-c4cn[nH]c4)ccc3n2)cn1` [Cpd-2, 6-tert-butyl-N-(6-(1H-pyrazol-4-yl)imidazo[1,2-a]pyridin-2-yl)nicotinamide]: the pIC50 against CLK1 is 8.96; on CLK2, 8.62; against SRPK1 it was 6.70; at SRPK2 it was 6.51. Also, the “activity for CLK1 relative to Cpd-1” value at CLK1 amounted to 10 fold. Further, the “activity for CLK2 relative to Cpd-1” value on CLK2 was found to be 10 fold. In the test with NCI-H23 cells, this molecule displayed a GI50 of 1400 nM. In addition, in test [1], the “concentration at which expression level of the alternatively spliced S6K mRNAs was highest” value lay in the range of 1.1 to 3.3 µM. In addition, the Rc0.1 in test [1] came out at 0.3 µM; in test [2], 0.9 µM; in test [3], 1.2 µM.

With `CC(C)(CO)c1ccc(C(=O)Nc2cn3cc(-c4cn[nH]c4)ccc3n2)cc1` [Cpd-3, 4-(1-hydroxy-2-methylpropan-2-yl)-N-(6-(1H-pyrazol-4-yl)imidazo[1,2-a]pyridin-2-yl)benzamide], the pIC50 on CLK1 was 8.96; against CLK2, 8.68; on SRPK1, 6.89; at SRPK2, 6.59. Also, at CLK1, the “activity for CLK1 relative to Cpd-1” value is recorded as 10 fold. The “activity for CLK2 relative to Cpd-1” value at CLK2 is 10 fold. The GI50 with NCI-H23 cells was 2200 nM. For the same molecule, the “concentration at which expression level of the alternatively spliced S6K mRNAs was highest” value in test [1] lay in the range of 1.1 to 3.3 µM. In addition, the Rc0.1 in test [1] was found to be 0.5 µM; in test [2], 1.1 µM; in test [3], 1.4 µM.
